Source: patent US20100068150A1, “Selective Caspase Inhibitors” (The Board of Trustees of the Leland Stanford Junior …, priority 2006, published 2010)

How the values were obtained:
Assay type in all cases: biochemical
Caspase-7 = biological target: T1, Caspase-7 (Homo sapiens, UniProt P55210); assay: Kinetic compound screening, progress curve method, caspase-7; conditions: for Ki(app) Caspase-7: Table III, Ki(app) = Kass or Kobs/I, 5 nM active caspase-7; for Caspase-7 Ki (app): Table IV
T1 sequence (P55210 1-303): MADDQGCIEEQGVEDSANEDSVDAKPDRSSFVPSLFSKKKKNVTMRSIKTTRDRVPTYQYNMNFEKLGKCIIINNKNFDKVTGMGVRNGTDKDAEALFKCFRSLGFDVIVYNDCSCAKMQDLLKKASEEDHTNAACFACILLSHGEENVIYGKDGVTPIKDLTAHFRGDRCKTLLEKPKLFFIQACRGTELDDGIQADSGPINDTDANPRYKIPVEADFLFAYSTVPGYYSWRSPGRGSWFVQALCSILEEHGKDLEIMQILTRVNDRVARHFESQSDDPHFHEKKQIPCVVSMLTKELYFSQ
Description: (§1) Table III below presents Ki(app) values for select AB compounds. Ki(app) values (also called Kass or Kobs/I) represent the speed of inhibitor binding to a target enzyme. Units are [M^−1s^−1]. NI indicates no inhibition at concentrations tested. Parent compounds AB09, ABo8, and AB07 that include the optimal substrate specificity sequences for caspases-3, […] as determined by Thornberry and colleagues (Thornberry et al., 19970 are included between double lines.
(§2) The inhibitors AB07 (NP-LEHD-AOMK, caspase-9), AB08 (NP-LETD-AOMK, caspase-8), and AB09 (NP-DEVD-AOMK, caspase-3) were synthesized and kinetic inhibition constants (Kiapp) were obtained for all compounds for caspases 3, 7, 8 and 9 using the progress curve method for pseudo-first order reactions kinetics (Salvesen, 1989) (structures shown in Table I). […] Ki(app) values (also called Kass or Kobs/I) represent the speed of inhibitor binding to a target enzyme. Units are [M-1s-1]. NI indicates no inhibition at concentrations tested, ND indicates data not determined, SD indicates standard deviation.
(§3) Compound screening was completed using the progress curve method as described (Salvesen, 1989). All screening was carried out in caspase reaction buffer. The caspase-9 specific compounds AB38, 40, 41 and 42 were screened in caspase reaction buffer and in caspase buffer with 1M sodium citrate instead of sucrose as described (Pop, 2006) The concentrations of active caspases used is as follows: 5 nM active caspase-3, 5 nM active caspase-7, 10 nM active caspase-8, and 50 nM active caspase-9. To ensure full activation, caspases 3/7, 8 and 9 were preincubated at 37° C. for 5, 10, or 40 minutes respectively before kinetic measurements were made.

Caspase-3 = biological target: T2, Caspase-3 (Homo sapiens, UniProt P42574); assay: Kinetic compound screening, progress curve method, caspase-3; conditions: for Ki(app) Caspase-3: Table III, Ki(app) = Kass or Kobs/I, 5 nM active caspase-3; for Caspase-3 Ki(app): Table IV
T2 sequence (P42574 29-175 limits assumed): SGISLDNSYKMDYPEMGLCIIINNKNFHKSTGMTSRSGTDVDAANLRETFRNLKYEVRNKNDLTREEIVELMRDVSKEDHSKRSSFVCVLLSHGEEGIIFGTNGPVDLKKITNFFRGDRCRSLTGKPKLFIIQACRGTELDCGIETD
T2 sequence (P42574 176-277 limits assumed): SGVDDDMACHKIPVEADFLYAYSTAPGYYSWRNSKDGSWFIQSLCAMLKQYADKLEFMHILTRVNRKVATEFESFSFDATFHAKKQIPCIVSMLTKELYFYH
Description: as §1, §2, §3

Caspase-8 = Caspase-8 (Homo sapiens, UniProt Q14790); assay: Kinetic compound screening, progress curve method, caspase-8; conditions: for Ki(app) Caspase-8: Table III, Ki(app) = Kass or Kobs/I, 10 nM active caspase-8; for Caspase-8 Ki (app): Table IV, NI = no inhibition at concentrations tested
Sequence of Caspase-8 (Q14790 217-479): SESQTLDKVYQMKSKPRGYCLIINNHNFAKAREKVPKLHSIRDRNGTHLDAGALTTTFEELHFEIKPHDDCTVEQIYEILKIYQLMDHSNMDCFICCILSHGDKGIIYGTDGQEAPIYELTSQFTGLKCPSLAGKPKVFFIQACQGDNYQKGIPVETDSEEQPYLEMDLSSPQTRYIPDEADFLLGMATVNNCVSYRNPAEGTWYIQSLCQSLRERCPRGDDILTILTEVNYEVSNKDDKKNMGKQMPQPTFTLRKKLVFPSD
Description: as §1, §2, §3

Caspase-9 = biological target: T3, Caspase-9 (Homo sapiens, UniProt P55211); assay: Kinetic compound screening, progress curve method, caspase-9; conditions: for Ki(app) Caspase-9: Table III, Ki(app) = Kass or Kobs/I, 50 nM active caspase-9; for Ki(app) Caspase-9 / Caspase-9 Ki (app): NI = no inhibition at concentrations tested; for Caspase-9 Ki (app): Table IV
T3 sequence (P55211 1-416): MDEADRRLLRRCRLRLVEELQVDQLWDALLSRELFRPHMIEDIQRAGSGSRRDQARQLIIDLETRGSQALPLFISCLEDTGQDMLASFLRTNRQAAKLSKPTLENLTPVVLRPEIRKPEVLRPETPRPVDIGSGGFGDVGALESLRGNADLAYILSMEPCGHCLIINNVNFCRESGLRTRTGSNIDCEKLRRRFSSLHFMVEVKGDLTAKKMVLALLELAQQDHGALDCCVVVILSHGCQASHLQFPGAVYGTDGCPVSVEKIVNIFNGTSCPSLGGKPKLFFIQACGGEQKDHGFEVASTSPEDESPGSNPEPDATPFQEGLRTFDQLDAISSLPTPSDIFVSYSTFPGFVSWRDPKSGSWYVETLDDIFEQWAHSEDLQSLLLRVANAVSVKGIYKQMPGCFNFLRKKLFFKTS
Description: as §1, §2, §3

Structure (SMILES)	Ki(app) Caspase-7 (Caspase-7)	Caspase-7 Ki (app) (Caspase-7)	Ki(app) Caspase-3 (Caspase-3)	Caspase-3 Ki(app) (Caspase-3)	Ki(app) Caspase-8 (Caspase-8)	Caspase-8 Ki (app) (Caspase-8)	activity for caspase-9, in words (Caspase-9)	inhibition of caspase-8, in words (Caspase-8)	Ki(app) Caspase-9 (Caspase-9)	Caspase-9 Ki (app) (Caspase-9)
Cc1cccc(C)c1C(=O)OCC(=O)[C@H](CC(=O)O)NC(=O)[C@@H](NC(=O)[C@@H](NC(=O)[C@H](CC(=O)O)NC(=O)Cc1ccc(O)c([N+](=O)[O-])c1)c1ccccc1)C(C)C [AB13, Np-D-E-34-V-D-DMBA]	279,519 M^−1s^−1	279,519 M-1s-1	3,416,050 M^−1s^−1	3,416,050 M-1s-1	<5,000 M^−1s^−1	<5,000 M-1s-1				
Cc1ccc(C[C@@H](NC(=O)[C@H](CC(=O)O)NC(=O)Cc2ccc(O)c([N+](=O)[O-])c2)C(=O)N[C@H](C(=O)N[C@@H](CC(=O)O)C(=O)COC(=O)c2c(C)cccc2C)C(C)C)cc1 [AB31, Np-D-30-V-D-DMBA]				64,873 M-1s-1						
Cc1cccc(C)c1C(=O)OCC(=O)[C@H](CC(=O)O)NC(=O)[C@@H](NC(=O)[C@H](Cc1ccccn1)NC(=O)[C@H](Cc1ccc2ccccc2c1)NC(=O)Cc1ccc(O)c([N+](=O)[O-])c1)C(C)C [AB16, Np-26-3-V-D-DMBA]	24,185 M^−1s^−1	24,185 M-1s-1	484,495 M^−1s^−1	484,495 M-1s-1	121,650 M^−1s^−1	121,650 M-1s-1				
Cc1cccc(C)c1C(=O)OCC(=O)[C@H](CC(=O)O)NC(=O)[C@@H](NC(=O)[C@H](CCC(=O)O)NC(=O)[C@H](Cc1ccc(I)cc1)NC(=O)Cc1ccc(O)c([N+](=O)[O-])c1)C1Cc2ccccc2C1 [AB19, NP-31-E-23-D-DMBA]	42,994 M^−1s^−1	42,994 M-1s-1	179,086 M^−1s^−1	179,086 M-1s-1	396,225 M^−1s^−1	396,225 M-1s-1	no measurable activity for caspase-9	retained relatively good potency for caspase-8		
Cc1cccc(C)c1C(=O)OCC(=O)[C@H](CC(=O)O)NC(=O)[C@@H](NC(=O)C(CCC(=O)O)NC(=O)[C@H](Cc1ccc2ccccc2c1)NC(=O)Cc1ccc(O)c([N+](=O)[O-])c1)C(C)C (stereo partly drawn) [AB17, Np-26-E-V-D-DMBA]	448,155 M^−1s^−1	448,155 M-1s-1	781,733 M^−1s^−1	781,733 M-1s-1	126,323 M^−1s^−1	126,323 M-1s-1				
Cc1cccc(C)c1C(=O)OCC(=O)[C@H](CC(=O)O)NC(=O)[C@@H](NC(=O)[C@H](CCC(=O)O)NC(=O)[C@H](CC(C)C)NC(=O)Cc1ccc(O)c([N+](=O)[O-])c1)C(C)O (stereo partly drawn) [AB08, Np-L-E- T-D-DMBA]	19,424 M^−1s^−1	19,424 M-1s-1	127,835 M^−1s^−1	127,835 M-1s-1	599,788 M^−1s^−1	599,788 M-1s-1			<5,000 M^−1s^−1	<5,000 M-1s-1
Cc1cccc(C)c1C(=O)OCC(=O)[C@H](CC(=O)O)NC(=O)[C@@H](NC(=O)[C@H](CCC(=O)O)NC(=O)[C@H](Cc1ccc(I)cc1)NC(=O)Cc1ccc(O)c([N+](=O)[O-])c1)C(C)O (stereo partly drawn) [AB18, NP-31-E-T-D-DMBA]	234,945 M^−1s^−1	234,945 M-1s-1	216,040 M^−1s^−1	216,040 M-1s-1	572,012 M^−1s^−1	572,012 M-1s-1			12,320 M^−1s^−1	12,320 M-1s-1
Cc1cccc(C)c1C(=O)OCC(=O)[C@H](CC(=O)O)NC(=O)C1CCCN1C(=O)[C@@H](CCC(=O)O)NC(=O)[C@H](CC(=O)O)NC(=O)Cc1ccc(O)c([N+](=O)[O-])c1 (stereo partly drawn) [AB11, NP-D-E- P-D-DMBA]	199,341 M^−1s^−1	199,341 M-1s-1	2,482,333 M^−1s^−1	2,482,333 M-1s-1	580,547 M^−1s^−1	580,547 M-1s-1			47,362 M^−1s^−1	47,362 M-1s-1
Cc1ccc(C[C@H](NC(=O)Cc2ccc(O)c([N+](=O)[O-])c2)C(=O)N[C@@H](CCC(=O)O)C(=O)N[C@H](C(=O)N[C@@H](CC(=O)O)C(=O)COC(=O)c2c(C)cccc2C)C(C)O)cc1 (stereo partly drawn) [AB20, Np-29-E-T-D-DMBA]	181,332 M^−1s^−1	181,332 M-1s-1	570,900 M^−1s^−1	570,900 M-1s-1	1,071,401 M^−1s^−1	1,071,401 M-1s-1		highest kinetic inhibition constants for caspase-8 that we have measured so far	41,300 M^−1s^−1	41,300 M-1s-1
Cc1ccc(C[C@H](NC(=O)[C@H](CC(=O)O)NC(=O)Cc2ccc(O)c([N+](=O)[O-])c2)C(=O)N[C@H](C(=O)N[C@@H](CC(=O)O)C(=O)COC(=O)c2c(C)cccc2C)C(C)C)cc1 [AB12, Np-D-E-29-V-D-DMBA]	783,840 M^−1s^−1	783,840 M-1s-1	5,652,900 M^−1s^−1	5,652,900 M-1s-1	271,626 M^−1s^−1	271,626 M-1s-1				
Cc1ccc(C[C@H](NC(=O)[C@H](CC(=O)O)NC(=O)Cc2ccc(O)c([N+](=O)[O-])c2)C(=O)NC2(C(=O)N[C@@H](CC(=O)O)C(=O)COC(=O)c3c(C)cccc3C)CC2)cc1 [AB30, Np-D-30-11-D-DMBA]				448,179 M-1s-1						
Cc1cccc(C)c1C(=O)OCC(=O)[C@H](CC(=O)O)NC(=O)[C@@H](NC(=O)[C@@H](NC(=O)[C@H](Cc1ccc2ccccc2c1)NC(=O)Cc1ccc(O)c([N+](=O)[O-])c1)c1ccccc1)C(C)C [AB15, Np-26-34-V-D-DMBA]				133,705 M-1s-1						
Cc1cccc(C)c1C(=O)OCC(=O)[C@H](CC(=O)O)NC(=O)C1(NC(=O)[C@H](CCC(=O)O)NC(=O)[C@H](CC(=O)O)NC(=O)Cc2ccc(O)c([N+](=O)[O-])c2)CC1 [AB29, Np-D-E-11-D-DMBA]				341,429 M-1s-1		90,503 M-1s-1				
